Measured values from patent EP0992240A1, “THERAPEUTIC AGENT FOR ERECTION FAILURE” (MOCHIDA PHARMACEUTICAL CO., LTD., priority 1997, dated 1998).
Where two headings read alike, the source gives them in different places.

Experiments:
[1] = Absorption upon intranasal administration to rats; assay type: in vivo, Male wistar rats; conditions: for MRT as compared with oral administration / Tmax as compared with oral administration / bioavailability: intranasal administration; for MAT / MRT / Tmax: intranasal; for bioavailability / MRT / Tmax: male, Wistar, rat, inhaled or intranasal
Text: Male wistar rats (eight weeks age) were anesthetized by intraperitoneal injection of 1 g/kg of urethane. Neck was incised to expose a trachea and polyethylene tube (SP 120; Natsume Seisakusho) was inserted into the trachea. Then a part of esophagus was opened by cutting and a polyethylene tube of the same diameter was inserted to the direction of choana and the end was tightly sealed with absorbent cotton and adhesive. In order to prevent a leakage of drug solution from nasopalatine canal, said canal of upper chin opening to mouth was closed by synthetic adhesive. The drug was dissolved in a 0.1% tartaric acid solution and the drug of 500 µl/kg was administered by a micropipette from outer nasal cavity followed by closing both outer nasal cavities immediately. As a control, the rat to which the drug was intravenously injected was prepared. After the injection; aliquot of blood was collected from time to time from jugular vein using a heparin-treated syringe and centrifuged to give plasma. Certain amount of the resulting plasma was collected, extracted with tert-butyl-methyl-ether three times, and the organic phase was evaporated to dryness and dissolved in the initial solvent for HPLC. A certain amount thereof was injected into an HPLC connected to an ultraviolet absorption detector and the drug concentration in the plasma was measured by reversed phase column. Time for arriving the maximum blood concentration (Tmax), mean residence time (MRT) and mean absorption time (MAT) were calculated from the measured value.

PDE type V = target: T1, PDE type V (Canis lupus familiaris, UniProt O77746); test: PDE inhibiting activity, type V; assay type: biochemical, dog; conditions: PDE purified from canine aorta, 1 µM substrate cGMP or cAMP
T1 construct: By elution with a sodium chloride gradient (0 - 0.4 M), PDE types V and III were separated from the other isozymes; from tissue; host or cells: canine aorta
Description: The canine aorta was minced and homogenized with a Waring Blender and a glass homogenizer in six volumes of a Tris-HCl buffer solution (pH 7.5, 20 mM) containing 2 mM magnesium acetate, 5 mM ethylenediaminetetraacetic acid (EDTA), 100 µg/mL of phenylmethylsulforyl fluoride and 15 mM 2-mercaptoethanol (2-ME), and centrifuged at 1200 x g for 30 min. […] By elution with a sodium chloride gradient (0 - 0.4 M), PDE types V and III were separated from the other isozymes. […] The resulting precipitated fraction was similarly applied to the DEAE-trisacryl column and eluted by a sodium chloride gradient (0 - 0.4 M) so as to separate PDE type I.
Specifically, a purified PDE sample was added to 50 mM Tris-HCl buffer solution (pH 7.5) containing 1 µM of substrate cGMP or cAMP (containing tritium-labelled cGMP or cAMP), 1 mM EGTA and 2 mM magnesium acetate. For PDE activity measurement, enzymatically produced 5' GMP or 5' AMP was further hydrolyzed into guanosine or adenosine with snake venom and separated from the substrate by means of an ion-exchange resin (Dowex 1-X2), followed by measuring with a scintillation counter. […] The final concentration of DMSO was adjusted to be no more than 2% in consideration of the effect on PDE activity.

male wistar rats = test: Toxicity test, oral administration for four days; conditions: 100 mg/kg/day orally for four days
[2] = system: smooth muscle of cavernous body of rabbits; test: Enhancement of nitroprusside relaxation of isolated cavernous body strips; conditions: relaxation by 1 µM nitroprusside compared with solvent
Description: Rabbits were anesthetized by an intravenous injection of 40-50 mg/kg of pentobarbital (Nembutal™ manufactured by Dainippon Pharmaceutical Co., Ltd.), blood was drained out by incision of carotid artery, and penis was taken out and placed in an ice-cooled nutrient solution (Krebs bicarbonate containing 118 mM of NaCl, 4.7 mM of KCl, 1.2 mM of KH2PO4, 1.2 mM of MgSO4.7H2O, 1.5 mM of CaCl2, 25 mM of NaHCO3, 11 mM of glucose and 0.023 mM of EDTA·2Na). After the tissues around the albuginea were incised in a nutrient solution, the albuginea was incised to prepare cavernous body of the penis. The cavernous body was cut and both ends of the strips of about 1 cm length were ligated by nylon yarn. One end was fixed to a supporting rod, transferred into a 20-ml Magnus tube which was filled with the nutrient solution, passed with a mixed gas of 95% oxygen and 5% carbon dioxide and kept at 37 °C while another end of the strip was connected to an isometric transducer (TB-611T; NIHON KOHDEN CORP.) placed on the upper area and a stress load of about 2 g was applied. After stabilization of 60 minutes or longer, strips were contracted with 10 µM of phenylephrine in the presence of 5 µM of guanetidine and 1 µM of atropine and, after stabilization, 1 µM or 100 µM of nitroprusside was added whereby relaxation by nitroprusside was ascertained. […] Rate of relaxation by 1 µM of nitroprusside after addition of the sample was compared with that after addition of the solvent and the increasing rate was calculated. […]

[3] = Absorption by percutaneous administration in rats; assay type: in vivo; conditions: hairless rats, Dose 10 mg/kg; for MRT / Tmax: rat
Description: Abdominal skin of hairless rats (eight weeks age, Nippon SLC) was wiped with 70% ethanol, and 0.25 ml/kg of a drug solution (40 mg/ml DMSO) was applied to an area of 8 cm^2 (2 x 4 cm) and the applied area was coated with a film coating agent (Permiaid S, Nitto Medical) and fixed with an adhesive bandage (Elastopore, Nichiban). After application of the drug solution, aliquot of blood was collected from time to time using a heparin-treated syringe from jugular vein and centrifuged to give plasma. Aliquot plasma was extracted with tert-butyl-methyl-ether three times, and the organic phase was evaporated to dryness and dissolved in the initial solvent for HPLC. A certain amount thereof was injected into a HPLC connected to an ultraviolet absorption detector and the drug concentration in the plasma was measured by means of a reversed phase column. Pharmacokinetic parameters were calculated from the measured data by the same manner as in Experiment 3.

PDE type I = test: PDE inhibiting activity, type I; assay type: biochemical, dog; conditions: PDE purified from canine aorta; 1 µM substrate cGMP or cAMP; read-out: Inhibition Activity IC50 (µM) Type I
Description: On the basis of the method of Lugnier et al. (Biochem. Pharmacol., 35, 1743-1751, 1986), PDE was purified from the aorta in a dog. The canine aorta was minced and homogenized with a Waring Blender and a glass homogenizer in six volumes of a Tris-HCl buffer solution (pH 7.5, 20 mM) containing 2 mM magnesium acetate, 5 mM ethylenediaminetetraacetic acid (EDTA), 100 µg/mL of phenylmethylsulforyl fluoride and 15 mM 2-mercaptoethanol (2-ME), and centrifuged at 1200 x g for 30 min. The supernatant was separated and salted out with ammonium sulfate which was added to 45% saturation. The resulting precipitated fraction was resuspended in a Tris-HCl buffer solution (pH 7.5, 20 mM) containing 2 mM magnesium acetate and 1 mM 2-ME, dialyzed overnight and applied to a DEAE-trisacryl column (DEAE […] M:IBF). By elution with a sodium chloride gradient (0 - 0.4 M), PDE types V and III were separated from the other isozymes. The supernatant fraction of 45% saturated ammonium sulfate was further mixed with ammonium sulfate to 65% saturation and salted out. The resulting precipitated fraction was similarly applied to the DEAE-trisacryl column and eluted by a sodium chloride gradient (0 - 0.4 M) so as to separate PDE type I.
The thus obtained PDE types V, III and I were measured for their activity in accordance with the method of Thompson et al. (Adv. Cyclic Nucleotide Res., 10, 69-72, 1979) and the method of Wells et al. (Biochim. Biophys. Acta, 384, 430-443, 1975). Specifically, a purified PDE sample was added to 50 mM Tris-HCl buffer solution (pH 7.5) containing 1 µM of substrate cGMP or cAMP (containing tritium-labelled cGMP or cAMP), 1 mM EGTA and 2 mM magnesium acetate. For PDE activity measurement, enzymatically produced 5' GMP or 5' AMP was further hydrolyzed into guanosine or adenosine with snake venom and separated from the substrate by means of an ion-exchange resin (Dowex 1-X2), followed by measuring with a scintillation counter. The activity of each test compound was determined as a percentage of the PDE activity measured when it was added as a dimethyl sulfoxide solution (DMSO) and its IC50 (50% inhibition concentration) was calculated by the probit method. The final concentration of DMSO was adjusted to be no more than 2% in consideration of the effect on PDE activity.

Structure (SMILES): CS(=O)(=O)O.O=c1c(Cc2cccnc2)cn2c3cc(Br)ccc3c3cc(OCCCO)cc1c32 [Example 52, 9-bromo-2-(3-hydroxypropyloxy)-5-(3-pyridylmethyl)-4H-pyrido[3,2,1-jk]carbazol-4-one methanesulfonate]
- MRT as compared with oral administration [1]: same
- Tmax as compared with oral administration [1]: same or shortened
- MAT ([1]; Dose 0.3 mg/kg): 1 to 2 h
- bioavailability ([1]; plasma): ~100%
- MRT ([1]; plasma, Dose 0.3 mg/kg): 2 to 3 h
- Tmax ([1]; plasma, Dose 0.3 mg/kg): 0.2 to 0.5 h
- IC50 (PDE type V; read-out: Inhibition Activity IC50 (µM) Type V): 0.0057 µM
- abnormal change in body weight and general symptoms (male wistar rats): no abnormal change
- dead case (male wistar rats; until the next morning of the completion of the administration): no dead case
- Enhancing Rate of Relaxation (%) ([2]; Final Added Amount 100 nM): 90.8%
- Enhancing Rate of Relaxation (%) ([2]; Final Added Amount 1000 nM): 190.9%
- MAT [3]: 7.9 h
- MRT ([3]; plasma, topical): 8.5 h
- Tmax ([3]; plasma, topical): 1 h

Structure (SMILES): CCCc1nn(C)c2c(=O)[nH]c(-c3cc(S(=O)(=O)N4CCN(C)CC4)ccc3OCC)nc12.O=C(O)CC(O)(CC(=O)O)C(=O)O [sildenafil, 5-[2-ethoxy-5-(4-methylpiperazin-1-ylsulfonyl)phenyl]-1-methyl-3-propyl-6,7-dihydro-1H-pyrazolo[4,3-d]pyrimidin-7-one-citrate, reference compound]
- MRT as compared with oral administration [1]: same
- Tmax as compared with oral administration [1]: same or shortened
- MAT ([1]; Dose 1.0 mg/kg): 1 to 2 h
- bioavailability ([1]; in vivo): ~100%
- MRT ([1]; in vivo, Dose 1.0 mg/kg): 2 to 3 h
- Tmax ([1]; in vivo, Dose 1.0 mg/kg): 0.2 to 0.5 h
- IC50 (PDE type V; Inhibition Activity IC50 (µM) Type V): 0.0018 µM
- IC50 (PDE type I): 0.46 µM
- Enhancing Rate of Relaxation (%) ([2]; Final Added Amount 1000 nM): 189.1%
- MAT [3]: 14.3 h
- MRT ([3]; in vivo): 14.7 h
- Tmax ([3]; in vivo): 1 h
